Experiments:
[1] = target: T1, CHIKVP (Chikungunya virus, UniProt Q8JUX6); conditions: 500 μM peptide, 5 μM CHIKVP, 1 hour, LC-MS extracted ion chromatograms
[2] = target: T1, CHIKVP; conditions: 500 µM of each peptide mixed, 5 µM CHIKVP, 10 minutes, LC-MS/UV peak area
[3] = target: T1, CHIKVP; conditions: 300 µM CHIKVP, 1.5 mM peptide, 10 min, 298 K, 75 mM deuterated Tris pH 7.5

T1 sequence (Q8JUX6 1004-1327 limits assumed): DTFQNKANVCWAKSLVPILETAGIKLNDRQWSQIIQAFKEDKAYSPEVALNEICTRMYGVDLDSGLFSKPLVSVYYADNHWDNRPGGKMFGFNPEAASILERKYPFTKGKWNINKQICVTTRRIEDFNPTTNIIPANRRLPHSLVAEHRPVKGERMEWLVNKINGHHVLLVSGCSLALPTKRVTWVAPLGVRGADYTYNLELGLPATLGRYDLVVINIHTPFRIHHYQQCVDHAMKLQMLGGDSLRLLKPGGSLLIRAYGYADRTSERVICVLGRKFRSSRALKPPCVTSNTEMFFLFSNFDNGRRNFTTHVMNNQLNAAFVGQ

Row | Substance | cleavage by CHIKVP by LC-MS [1] | decrease in peak area [2] [%] | binding to CHIKVP from 1H-NMR line broadening [3]
1 | VEQLEDRAGA/GIIGGSRR | effectively cleaved | 52.7 | 
2 | DELRLDRAGG/YIFSS | effectively cleaved | 54.1 | more potent binder of CHIKVP

Reference: article doi:10.1101/2025.02.01.636040v1 (bioRxiv, 2025)
